The results in this text go back to US4562207A, “Prostaglandin analogue” (Ono Pharmaceutical Co., Ltd., priority 1983, dated 1985).

Series [1] relates to platelet aggregation induced by adenosine-diphosphoric acid (ADP). Description: inhibiting activity on platelet aggregation induced by ADP on human blood. The format is cell-based. Conditions: for IC50: read-out: IC50 (concentration which produces 50%-inhibition of platelet aggregation); for Relative activity against PGE1: relative to PGE1 (control) = 1.00, ADP-induced. From the text: The platelet aggregation was induced by adenosine-diphosphoric acid (ADP) on human blood. The IC50 values given in the Table are the concentrations which produce 50%-inhibition of platelet aggregation.
INHIBITING ACTIVITIES ON PLATELET AGGREGATION INDUCED BY ADP

Series [2] is described as follows: acute toxicity in mice by oral administration. Conditions: mouse, in vivo. The procedure: For example, in a test of acute toxicity in mice by oral administration, the value of LD50 of 6-keto-16S,18S-ethano-20-ethyl-PGE1 for the compound of the present invention is very large; that is the value is more than […] animal body weight.
Series [3] has as its system carbon tetrachloride-induced liver damage. The experiment in a line: carbon tetrachloride-induced liver damage in rats. Format: in vivo. Conditions: oral, in comparison with controls. The procedure:
The experiments were carried out by the methods described in Example 1 of the specification of published W. German Patent Application No. 3310556.1 and Japanese Patent Kokai No. 58-164512, except that carbon tetrachloride was used as a 10% solution in olive oil.

[4] abbreviates: ADP-induced platelet aggregation, human blood.

Converted amounts (≈) assume the structure as drawn. Where two headings read alike, the source gives them in different places.

In general, LD50 refers to the dose at which mortality reaches 50%. Read a low LD50 as greater toxicity.

With `CCCCC1CCC([C@H](O)/C=C/[C@H]2[C@H](O)CC(=O)[C@@H]2CC(=O)CCCCC(=O)OC)C1` (some centres unmarked) [reference compound], the IC50 in series [1] (setting [4]) is 3.6 ng/mL (≈ 8.25 nM). Besides, in series [1] (human blood), the “Relative activity against PGE1” value is given as 9.58.

On to `CCCCC[C@H](O)/C=C/[C@H]1[C@H](O)CC(=O)[C@@H]1CCCCCCC(=O)O` [PGE1, reference compound], for which, in series [1] (setting [4]), the IC50 was determined as 34.5 ng/mL (≈ 97.3 nM).

In the case of `CCCC[C@H]1CC[C@H]([C@H](O)/C=C/[C@H]2[C@H](O)CC(=O)[C@@H]2CC(=O)CCCCC(=O)O)C1` [6-keto-16S,18S-ethano-20-ethyl-PGE1, 6,9-dioxo-11α,15α-dihydroxy-16S,18S-ethano-20-ethylprost-13E-enoic acid], in series [2], the LD50 is more than 3 mg/kg. In addition, the IC50 in series [1] (Homo sapiens, Platelet) stood at 0.08 ng/mL (≈ 0.189 nM). For the same compound, the “activity as compared with the comparison compound (times as strong)” value in series [1] (compared with compound of Example 2(d) of U.S. Pat. No. 4,278,688, platelet aggregation) is reported as “about 45 times”. In addition, the “Relative activity against PGE1” value in series [1] (human blood) turned out to be 431. Also, in series [3] (20 μg/kg), the “inhibition of plasma GOT (glutamic oxalacetic transaminase)” value is recorded as 47% and the “inhibition of plasma GPT (glutamic pyruvic transaminase)” value is on record as 42%. In series [3] (50 μg/kg), the “inhibition of plasma GOT (glutamic oxalacetic transaminase)” value worked out at 64% and the “inhibition of plasma GPT (glutamic pyruvic transaminase)” value amounted to 66%.
